Measurements published in patent publication US20180161364A1 (priority 2015, published 2018).

Legend:
Type in all cases: cell-based
[1] = test system: Aspergillus brasiliensis (DSM 1988/ATCC 16404); assay: microbe, parasite or virus in culture
From the text: (§1) The following bacteria and fungi strains and methods were used:
Aspergillus brasiliensis (2d) and (9d): MIC determined in accordance with a method of the European Committee on Antimicrobial Susceptibility Testing: EUCAST E.DEF 9.1, July 2008, “Method for the determination of broth dilution minimum inhibitory concentrations of antifungal agents for conidia forming moulds” available under www.eucast.

[2] = test system: Candida albicans (DSM 1386/ATCC 10231); assay: microbe, parasite or virus in culture; conditions: C. albicans
From the text: as §1
Candida albicans: MIC determined in accordance with the method described in EUCAST DEFINITIVE DOCUMENT EDef 7.2 “Method for the determination of broth dilution minimum inhibitory concentrations of antifungal agents for yeasts” available under www.eucast.org.

[3] = test system: Escherichia coli (DSM 1576/ATCC 8739); assay: microbe, parasite or virus in culture; conditions: E. coli
From the text: as §1
(§2) Pseudomonas aeruginosa and Escherichia coli: MIC determined in accordance with DIN EN ISO 20776-1: 2006.

[4] = test system: Pseudomonas aeruginosa (DSM 1128/ATCC 9027); assay: microbe, parasite or virus in culture; conditions: P. aeruginosa
From the text: as §1, §2

[5] = test system: Human corneal epithelial cells (HCE-T-cell line); assay: MTT toxicity test; conditions: compound 0.01%, 10 minutes treatment, in reference to KRB (100% viability) and Triton X (0% viability)
Procedure: The toxicity of the compounds of the invention was determined in accordance with a conventional MTT test. Human corneal epithelial cells (HCE-T-cell line) were cultivated in 5% Sasaki cell culture medium consisting of 250 ml DMEM (Dulbecco's Modified Eagle's Medium), 250 ml Ham's F12 medium, 27.17 ml fetale calf serum, 543.4 μl insulin 5 mg/ml, 1.086 ml EGF stock solution 5 μg/ml, 2.717 ml DMSO and 5.43 ml antibiotic/antimycotic solution. The cells were seeded into a 96 wells cell culture plate (18 000 cells/well) and grown in an incubator for about 24 h (37° C., 5% CO2). The medium was removed and the test compounds dissolved in KRB (Krebs Ringer buffer) were applied. 100 μl KRB were used as positive control whereas a 0.5% Triton X solution was used as negative control.
After incubation for 10 min. under light protection the test compounds were removed and the plates were rinsed once with 100 μl phosphate buffered saline (PBS without Mg and Ca) per well. After removal of PBS 100 μl MTT reagent (0.05%) were added into each well followed by incubation for 3h at 37° C. under light protection. Thereafter, the reagent was removed and replaced by 100 μl lysis solution. The dark blue dye was dissolved from the cells by shaking. After 30 min. the plate was evaluated by UV spectroscopy at 570 nm.

Compound	MIC ([1]; 48 h, A. bras. (2d)) [µg/mL]	MIC ([1]; 216 h, A. bras. (9d)) [µg/mL]	MIC [2] [µg/mL]	MIC [3] [µg/mL]	MIC [4] [µg/mL]	Viability [5] [%]
c1cc(-c2cc[n+](CCCC[n+]3ccc(-c4ccncc4)cc3)cc2)ccn1 [Comp. ex. 3, reference compound]	200	200 to 400	200	200	> 400	–
CC[N+](CC)(CC)C/C=C/C[n+]1ccc(CCCc2cc[n+](C/C=C/C[n+]3ccc(CCCc4cc[n+](C/C=C/C[N+](CC)(CC)CC)cc4)cc3)cc2)cc1 [Ex. 3]	12.5	12.5 to 25	< 3.1	50	25	90.3 ± 7.0
BrCCCC[n+]1ccc(-c2ccncc2)cc1 [Ex. 5]	3.1	3.1 to 50	1.56	6.3	12.5	83.8 ± 12.6
CCCCCCCCCCCC[N+](C)(C)CCCC[n+]1ccc(-c2ccncc2)cc1 [Ex. 6.2]	6.3	6.3	< 3.12	6.3	12.5	74.9 ± 12.0
